According to US20230210858A1, “PODOSOMES AS A THERAPEUTIC TARGET FOR INTRACRANIAL ANEURYSM” (THE BOARD OF REGENTS OF THE UNIVERSITY OF TEXAS SYSTEM, priority 2022, published 2023):

How the values were obtained:
[1] = tested on: Thsd1-deficient zebrafish; assay: Intracranial hemorrhage in thsd1 knockdown zebrafish embryos treated with SRC inhibitor (FIG. 8); assay type: in vivo; conditions: vs DMSO control, n>120 embryos, p<0.05, FIG. 8b
Procedure: (§1) Anti-sense morpholinos against thsd1, atg5 or talin was injected into one-cell stage zebrafish singly or in combination to silence the gene accordingly. At day 2 to day 3, embryos will be checked under regular optical microscope. Embryos with intracranial hemorrhages will be counted and imaged by Olympus microscope.
Intracranial aneurysm and hemorrhage are tightly associated with compromised cerebrovascular integrity. Recently, zebrafish have gained additional popularity as a vertebrate model organism for studying the cerebrovasculature. Since zebrafish embryos are transparent, intracranial hemorrhage can be directly observed using a standard microscope. Furthermore, zebrafish fecundity and rapid development permits rapid phenotypic evaluation as intracranial hemorrhage in zebrafish fry are detectable as early as 2-3 days post fertilization. Importantly, gain-of-function and loss-of-function approaches are well established in zebrafish that include morpholino and mRNA injections and more recently, through applications of CRISPR/Cas9 technology.
FIGS. 8a-8b are experimental results depicting that loss-of-function of Thsd1 induces SRC-dependent intracranial hemorrhage in zebrafish, and treatment with a PP2 SRC inhibitor prevents intracranial hemorrhage in Thsd1-deficient zebrafish. […] FIG. 8b is a chart quantifying the number of embryos with intracranial hemorrhage (%).

[2] = tested on: thsd1-MO injected zebrafish embryos; assay: Hemorrhagic incidence in thsd1-MO injected zebrafish embryos (Table 5 constructs) treated with SRC inhibitors (FIG. 13); assay type: in vivo
Procedure: as §1
Subsequently, the nucleic acid constructs encoding these sequences were introduced into zebrafish thsd1 by PCR mutagenesis. Specifically, the thsd1 variant or the WT sequence was subcloned into pCS2+ zebrafish vector for expression. These constructs were used as tools to study cerebrovascular integrity mediated by thsd1 WT and rare variants in the zebrafish animal model selected to model a human condition.
All embryos were injected by thsd1-MO and the hemorrhagic incidence was counted under microscope. For each injection, around 80-120 embryos were injected. *p<0.05, **p<0.01.

| Compound | number of embryos with intracranial hemorrhage (%) [1] | hemorrhagic incidence (intracranial hemorrhage) ([2]; 10 uM in embryo water at 1 dpf for 24 hours) | hemorrhagic incidence (intracranial hemorrhage) ([2]; 1 uM in embryo water at 1 dpf for 24 hours) |
| --- | --- | --- | --- |
| CC(C)(C)n1nc(-c2ccc(Cl)cc2)c2c(N)ncnc21 [PP2] | ameliorated Thsd1-dependent hemorrhage incidents | rescued intracranial hemorrhage | – |
| CN(C)S(=O)(=O)c1ccc2c(c1)/C(=C/c1cc3c([nH]1)CCCC3)C(=O)N2 [SU5565] | – | – | rescued intracranial hemorrhage |
